Measurements published in ChEMBL document CHEMBL1139097, “Synthesis and QSAR studies on hypotensive 1-[3-(4-substituted phenylthio) propyl]-4-(substituted phenyl) piperazines” (Bioorg Med Chem Lett, 2007).

What was measured:
Felis catus = assay: Hypotensive activity in anaesthetized cat assessed as blood pressure fall at 2 umol/kg, iv; assay type: functional
[1] = target: 5-hydroxytryptamine receptor 2A (Rattus norvegicus) (UniProt P14842); assay: Displacement of [3H]ketanserin from rat cloned 5HT2A receptor expressed in NIH-3T3-GF6 cells at 10^-6M relative to ketanserin; assay type: cell-based
[2] = target: 5-hydroxytryptamine receptor 2A (Rattus norvegicus, UniProt P14842); assay: Displacement of [3H]ketanserin from rat cloned 5HT2A receptor expressed in NIH-3T3-GF6 cells; assay type: cell-based
5-hydroxytryptamine receptor 2A, sequence (P14842 whole entry): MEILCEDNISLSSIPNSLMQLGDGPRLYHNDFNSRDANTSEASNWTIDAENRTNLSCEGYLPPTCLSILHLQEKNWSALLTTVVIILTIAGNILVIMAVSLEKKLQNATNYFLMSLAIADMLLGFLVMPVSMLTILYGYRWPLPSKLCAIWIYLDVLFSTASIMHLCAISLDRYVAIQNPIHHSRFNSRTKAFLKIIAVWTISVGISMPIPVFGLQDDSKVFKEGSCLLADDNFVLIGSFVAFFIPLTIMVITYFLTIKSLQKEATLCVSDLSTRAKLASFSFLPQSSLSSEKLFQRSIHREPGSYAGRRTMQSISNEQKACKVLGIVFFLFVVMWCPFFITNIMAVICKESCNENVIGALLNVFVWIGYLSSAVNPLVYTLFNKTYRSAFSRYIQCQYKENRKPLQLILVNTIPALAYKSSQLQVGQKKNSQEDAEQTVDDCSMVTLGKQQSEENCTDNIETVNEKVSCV

5-hydroxytryptamine receptor 2A (Rattus norvegicus), sequence (P14842 whole entry): as above

| Activity [1] | Ki [2] | SMILES | Activity (Felis catus) |
| --- | --- | --- | --- |
|  |  | COc1ccc(N2CCN(CCCSc3ccccc3)CC2)cc1 | 15.38% |
| 37% |  | Fc1ccc(SCCCN2CCN(c3ccccc3)CC2)cc1 | 14.28% |
|  |  | Cc1cccc(N2CCN(CCCSc3ccc(F)cc3)CC2)c1 | 38.3% |
|  |  | Cc1ccc(SCCCN2CCN(c3cccc(C)c3)CC2)cc1 | 55.74% |
| 85.4% |  | CC(=O)Nc1ccc(SCCCN2CCN(c3ccc(F)cc3)CC2)cc1 | 21.21% |
|  |  | COc1ccc(SCCCN2CCN(c3cccc(C(F)(F)F)c3)CC2)cc1 | 53.42% |
|  |  | CC(=O)Nc1ccc(SCCCN2CCN(c3ccc(Cl)c(Cl)c3)CC2)cc1 | 20% |
| 37.4% |  | c1ccc(SCCCN2CCN(c3ccccc3)CC2)cc1 | 41.07% |
|  |  | COc1ccccc1N1CCN(CCCSc2ccccc2)CC1 | 26.23% |
| 94.7% | 6.09 nM | CC(=O)Nc1ccc(SCCCN2CCN(c3cccc(C)c3)CC2)cc1 | 55% |
|  |  | COc1ccc(SCCCN2CCN(c3cccc(Cl)c3)CC2)cc1 | 42.62% |
|  |  | Cc1ccc(SCCCN2CCN(c3ccc(Cl)c(Cl)c3)CC2)cc1 | 36.36% |
|  |  | COc1ccc(SCCCN2CCN(c3cccc(C)c3)CC2)cc1 | 21.4% |
|  |  | Clc1ccc(SCCCN2CCN(c3ccc(Cl)c(Cl)c3)CC2)cc1 | 26.58% |
|  |  | Clc1cccc(N2CCN(CCCSc3ccccc3)CC2)c1 | 55.99% |
| 75.6% | 13.6 nM | Cc1cccc(N2CCN(CCCSc3ccccc3)CC2)c1 | 65.15% |
|  |  | COc1ccc(SCCCN2CCN(c3cccc(F)c3)CC2)cc1 | 17.02% |
|  |  | Fc1ccc(N2CCN(CCCSc3ccccc3)CC2)cc1 | 20.69% |
|  |  | O=[N+]([O-])c1ccc(SCCCN2CCN(c3ccc(F)cc3)CC2)cc1 | 25.87% |
|  |  | Cc1ccccc1N1CCN(CCCSc2ccc(Cl)cc2)CC1 | 40% |
|  |  | Fc1ccc(SCCCN2CCN(c3cccc(F)c3)CC2)cc1 | 34% |

| Activity [1] | Ki [2] | SMILES | Activity (Felis catus) |
| --- | --- | --- | --- |
| 25.7% |  | COc1ccc(N2CCN(CCCSc3ccc(F)cc3)CC2)cc1 | 12.49% |
|  |  | Clc1ccc(N2CCN(CCCSc3ccccc3)CC2)cc1Cl | 45.83% |
| 37.1% |  | COc1ccc(N2CCN(CCCSc3ccc(Br)cc3)CC2)cc1 | 23.06% |
|  |  | CCNc1ccc(SCCCN2CCN(c3cccc(C)c3)CC2)cc1 | 41.14% |
|  |  | COc1ccccc1N1CCN(CCCSc2ccc(Br)cc2)CC1 | 21.59% |
| 80.5% | 21.1 nM | Cc1cccc(N2CCN(CCCSc3ccc([N+](=O)[O-])cc3)CC2)c1 | 84.41% |
|  |  | Fc1ccc(N2CCN(CCCSc3ccc(Br)cc3)CC2)cc1 | 19.86% |
|  |  | Cc1ccc(SCCCN2CCN(c3ccc(F)cc3)CC2)cc1 | 21.74% |
|  |  | Nc1ccc(SCCCN2CCN(c3ccc(F)cc3)CC2)cc1 | 13.51% |
|  |  | COc1ccc(SCCCN2CCN(c3ccc(F)cc3)CC2)cc1 | 17.46% |
|  |  | Cc1ccc(SCCCN2CCN(c3ccccc3C)CC2)cc1 | 61.02% |
|  |  | Cc1ccccc1N1CCN(CCCSc2ccc([N+](=O)[O-])cc2)CC1 | 42% |
|  |  | Cc1ccccc1N1CCN(CCCSc2ccc(F)cc2)CC1 | 37.59% |
|  |  | Cc1cccc(N2CCN(CCCSc3ccc(Cl)cc3)CC2)c1 | 43.8% |
|  |  | Fc1ccc(N2CCN(CCCSc3ccc(Cl)cc3)CC2)cc1 | 42.31% |
|  |  | COc1ccc(SCCCN2CCN(c3ccc(Cl)c(Cl)c3)CC2)cc1 | 21.05% |
| 32.9% |  | Fc1ccc(SCCCN2CCN(c3ccc(F)cc3)CC2)cc1 | 20.66% |
|  |  | Fc1ccc(SCCCN2CCN(c3ccc(Cl)c(Cl)c3)CC2)cc1 | 38.3% |
| 72.7% | 21.1 nM | CC(=O)Nc1ccc(SCCCN2CCN(c3ccccc3C)CC2)cc1 | 51.61% |
|  |  | Cc1cccc(N2CCN(CCCSc3ccc(N)cc3)CC2)c1 | 24.28% |
|  |  | CCNc1ccc(SCCCN2CCN(c3ccccc3C)CC2)cc1 | 48.65% |
